ChEMBL document CHEMBL6127029, “Glutathione-dependent degradation of SMARCA2/4 for targeted lung cancer therapy with improved selectivity” (Eur J Med Chem, 2024)
Active and inactive are the calls of the source. The calls are words filed in the database; no cut-off is given here.

Legend:
[1] = Stability of the compound in cell culture medium containing 10% fetal bovine serum at 50 uM incubated for 12 hrs by HPLC analysis; type: physicochemical, cell-free; details: cattle
[2] = Stability of the compound in cell culture medium containing 10% fetal bovine serum assessed as drug degradation at 50 uM incubated for 12 hrs by HPLC analysis; type: physicochemical, cell-free; details: cattle, read-out: Drug degradation
A549 [3] = test: Antitumor activity against human A549 cells xenografted in BALB/c mouse assessed as upregulation of Ki67 expression at 80 mg/kg,IT(Intratumoral) administrated every four days for 16 days by immunohistochemistry analysis; type: functional, organism-based; details: time 16.0 day
[4] = molecular target: T1, von Hippel-Lindau disease tumor suppressor/SWI/SNF-related matrix-associated actin-dependent regulator of chromatin subfamily A member 2 (Homo sapiens) (UniProt P51531+P40337); test: PROTAC activity at VHL/SMARCA2 in human A549 cells harboring shRNA mediated VHL knockdown assessed as induction of SMARCA2 degradation at 0.1 to 2 uM incubated for 8 hrs by Western blotting analysis; type: cell-based; details: dose 0.1-2 µM
A549 [5] = test: Antitumor activity against human A549 cells xenografted in BALB/c mouse assessed as reduction in tumor weight at 80 mg/kg,IT(Intratumoral) administrated every four days for 16 days; type: functional, organism-based; details: time 16.0 day
HuLEC-5a [6] = test: Inhibition of colony formation in human HuLEC-5a cells assessed as reduction in colony number at 0.8 to 20 uM incubated for 13 days by crystal violet staining based analysis; type: functional, cell-based; details: dose 0.8-20 µM, time 13.0 day
[7] = molecular target: T1, von Hippel-Lindau disease tumor suppressor/SWI/SNF-related matrix-associated actin-dependent regulator of chromatin subfamily A member 2 (Homo sapiens); test: PROTAC activity at VHL/SMARCA2 in human A549 cells assessed as induction of SMARCA2 degradation at 1 uM pretreated with MLN4924 followed by compound addition and measured after 8 hrs by Western blotting analysis; type: cell-based
[8] = Stability of the compound in cell culture medium containing 10% fetal bovine serum at 50 uM incubated for 72 hrs by HPLC analysis; type: physicochemical, cell-free; details: cattle
[9] = Toxicity in BALB/c mouse xenografted with human A549 cells assessed as morphological change in spleen at 80 mg/kg,IT(Intratumoral) administrated every four days for 16 days by hematoxylin and eosin staining based microscopic analysis; type: organism-based; details: in vivo, other, 384 h, time 16 day
[10] = Toxicity in BALB/c mouse xenografted with human A549 cells assessed as morphological change in heart at 80 mg/kg,IT(Intratumoral) administrated every four days for 16 days by hematoxylin and eosin staining based microscopic analysis; type: organism-based; details: in vivo, other, 384 h, time 16 day
A549 [11] = test: Inhibition of colony formation in human A549 cells assessed as reduction in colony size at 0.8 to 20 uM incubated for 13 days by crystal violet staining based analysis; type: functional, cell-based; details: dose 0.8-20 µM, time 13.0 day
[12] = molecular target: T1, von Hippel-Lindau disease tumor suppressor/SWI/SNF-related matrix-associated actin-dependent regulator of chromatin subfamily A member 2 (Homo sapiens); test: PROTAC activity at VHL/SMARCA2 in human 786-0 cells harboring mutated VHL assessed as induction of SMARCA2 degradation at 0.1 to 5 uM incubated for 8 hrs by Western blotting analysis; type: cell-based; details: dose 0.1-5 µM
A549 [13] = test: Antitumor activity against human A549 cells xenografted in BALB/c mouse assessed as reduction in tumor size at 80 mg/kg,IT(Intratumoral) administrated every four days for 16 days; type: functional, organism-based; details: time 16.0 day
[14] = molecular target: T1, von Hippel-Lindau disease tumor suppressor/SWI/SNF-related matrix-associated actin-dependent regulator of chromatin subfamily A member 2 (Homo sapiens); test: PROTAC activity at VHL/SMARCA2 in human A549 cells assessed as induction of SMARCA2 degradation at 1 uM by Western blotting analysis; type: cell-based; details: TDE = time-dependent effect
[15] = molecular target: T1, von Hippel-Lindau disease tumor suppressor/SWI/SNF-related matrix-associated actin-dependent regulator of chromatin subfamily A member 2 (Homo sapiens); test: PROTAC activity at VHL/SMARCA2 in human NCI-H1299 cells assessed as induction of SMARCA2 degradation at 1 uM by Western blotting analysis; type: cell-based; details: TDE = time-dependent effect
[16] = molecular target: T1, von Hippel-Lindau disease tumor suppressor/SWI/SNF-related matrix-associated actin-dependent regulator of chromatin subfamily A member 2 (Homo sapiens); test: PROTAC activity at VHL/SMARCA2 in human HEK-293T cells assessed as induction of SMARCA2 degradation at 1 uM incubated for 24 hrs by Western blotting analysis relative to control; type: cell-based
HuLEC-5a [17] = test: Inhibition of colony formation in human HuLEC-5a cells assessed as reduction in colony size at 0.8 to 20 uM incubated for 13 days by crystal violet staining based analysis; type: functional, cell-based; details: dose 0.8-20 µM, time 13.0 day
A549 [18] = test: Antitumor activity against human A549 cells xenografted in BALB/c mouse assessed as reduction in tumor volume at 80 mg/kg,IT(Intratumoral) administrated every four days for 16 days; type: functional, organism-based; details: time 16.0 day
[19] = Toxicity in BALB/c mouse xenografted with human A549 cells assessed as morphological change in kidney at 80 mg/kg,IT(Intratumoral) administrated every four days for 16 days by hematoxylin and eosin staining based microscopic analysis; type: organism-based; details: in vivo, other, 384 h, time 16 day
A549 [20] = test: Antitumor activity against human A549 cells xenografted in BALB/c mouse assessed as downregulation of SMARCA2 expression at 80 mg/kg,IT(Intratumoral) administrated every four days for 16 days by immunohistochemistry analysis; type: functional, organism-based; details: time 16.0 day
[21] = molecular target: T2, von Hippel-Lindau disease tumor suppressor/SWI/SNF-related matrix-associated actin-dependent regulator of chromatin subfamily A member 4 (Homo sapiens) (UniProt P51532+P40337); test: PROTAC activity at VHL/SMARCA4 in human HEK-293T cells assessed as induction of SMARCA4 degradation at 1 uM incubated for 24 hrs by Western blotting analysis relative to control; type: cell-based
[22] = Toxicity in BALB/c mouse xenografted with human A549 cells assessed as morphological change in lung at 80 mg/kg,IT(Intratumoral) administrated every four days for 16 days by hematoxylin and eosin staining based microscopic analysis; type: organism-based; details: in vivo, other, 384 h, time 16 day
[23] = Stability in mouse plasma at 10 uM incubated for 24 hrs by HPLC analysis; type: ADME, cell-free
[24] = molecular target: T1, von Hippel-Lindau disease tumor suppressor/SWI/SNF-related matrix-associated actin-dependent regulator of chromatin subfamily A member 2 (Homo sapiens); test: PROTAC activity at VHL/SMARCA2 in human NCI-H1299 cells harboring shRNA mediated VHL knockdown assessed as induction of SMARCA2 degradation at 0.1 to 2 uM incubated for 8 hrs by Western blotting analysis; type: cell-based; details: dose 0.1-2 µM
A549 [25] = test: Antitumor activity against human A549 cells xenografted in BALB/c mouse assessed as upregulation of gamma-H2AX expression at 80 mg/kg,IT(Intratumoral) administrated every four days for 16 days by immunohistochemistry analysis; type: functional, organism-based; details: time 16.0 day
[26] = Toxicity in BALB/c mouse xenografted with human A549 cells assessed as change in body weight at 80 mg/kg,IT(Intratumoral) administrated every four days for 16 days; type: organism-based; details: in vivo, other, 384 h, time 16 day
A549 [27] = test: Antitumor activity against human A549 cells xenografted in BALB/c mouse assessed as upregulation of cleaved caspase-3 expression at 80 mg/kg,IT(Intratumoral) administrated every four days for 16 days by Western blotting analysis; type: functional, organism-based; details: time 16.0 day
A549 [28] = test: Cytotoxicity against human A549 cells assessed as inhibition of cell growth incubated for 3 days by MTT assay; type: functional, cell-based; details: A549, 72 h
[29] = molecular target: T1, von Hippel-Lindau disease tumor suppressor/SWI/SNF-related matrix-associated actin-dependent regulator of chromatin subfamily A member 2 (Homo sapiens); test: PROTAC activity at VHL/SMARCA2 in human A549 cells assessed as induction of SMARCA2 degradation at 1 uM pretreated with 2-(4-(3-Amino-6-(2-hydroxyphenyl)pyridazin-4-yl)piperazin-1-yl) acetic acid trifluoroacetate followed by compound addition and measured after 8 hrs by Western blotting analysis; type: cell-based
A549 [30] = test: Inhibition of cell migration in human A549 cells at 10 uM incubated for 36 hrs by scratch wound healing based fluorescent microscopic analysis; type: functional
A549 [31] = test: Inhibition of colony formation in human A549 cells assessed as reduction in colony number at 0.8 to 20 uM incubated for 13 days by crystal violet staining based analysis; type: functional, cell-based; details: dose 0.8-20 µM, time 13.0 day
A549 [32] = test: Antitumor activity against human A549 cells xenografted in BALB/c mouse assessed as downregulation of SMARCA2 expression at 80 mg/kg,IT(Intratumoral) administrated every four days for 16 days by Western blotting analysis; type: functional, organism-based; details: time 16.0 day
[33] = Toxicity in BALB/c mouse xenografted with human A549 cells assessed as morphological change in liver at 80 mg/kg,IT(Intratumoral) administrated every four days for 16 days by hematoxylin and eosin staining based microscopic analysis; type: organism-based; details: in vivo, other, 384 h, time 16 day
[34] = molecular target: T1, von Hippel-Lindau disease tumor suppressor/SWI/SNF-related matrix-associated actin-dependent regulator of chromatin subfamily A member 2 (Homo sapiens); test: PROTAC activity at VHL/SMARCA2 in human A549 cells assessed as induction of SMARCA2 degradation at 1 uM pretreated with VHL-ligand followed by compound addition and measured after 8 hrs by Western blotting analysis; type: cell-based
NCI-H1299 = test: Cytotoxicity against human NCI-H1299 cells assessed as inhibition of cell growth incubated for 3 days by MTT assay; type: functional, cell-based; details: NCI-H1299, 72 h
[35] = molecular target: T2, von Hippel-Lindau disease tumor suppressor/SWI/SNF-related matrix-associated actin-dependent regulator of chromatin subfamily A member 4 (Homo sapiens); test: PROTAC activity at VHL/SMARCA4 in human 786-0 cells harboring mutated VHL assessed as induction of SMARCA4 degradation at 0.1 to 5 uM incubated for 8 hrs by Western blotting analysis; type: cell-based; details: dose 0.1-5 µM
[36] = molecular target: T1, von Hippel-Lindau disease tumor suppressor/SWI/SNF-related matrix-associated actin-dependent regulator of chromatin subfamily A member 2 (Homo sapiens); test: PROTAC activity at VHL/SMARCA2 in human A549 cells assessed as induction of SMARCA2 degradation at 1 uM incubated for 8 hrs in presence of GSH scavenger NEM by Western blotting analysis; type: cell-based
[37] = molecular target: T1, von Hippel-Lindau disease tumor suppressor/SWI/SNF-related matrix-associated actin-dependent regulator of chromatin subfamily A member 2 (Homo sapiens); test: PROTAC activity at VHL/SMARCA2 in human A549 cells assessed as induction of SMARCA2 degradation at 1 uM incubated for 24 hrs by Western blotting analysis; type: cell-based
A549 [38] = test: Antitumor activity against human A549 cells xenografted in BALB/c mouse assessed as upregulation of cleaved caspase-3 expression at 80 mg/kg,IT(Intratumoral) administrated every four days for 16 days by immunohistochemistry analysis; type: functional, organism-based; details: time 16.0 day
[39] = molecular target: T1, von Hippel-Lindau disease tumor suppressor/SWI/SNF-related matrix-associated actin-dependent regulator of chromatin subfamily A member 2 (Homo sapiens); test: PROTAC activity at VHL/SMARCA2 in human A549 cells assessed as induction of SMARCA2 degradation at 1 uM pretreated with MG132 followed by compound addition and measured after 8 hrs by Western blotting analysis; type: cell-based

T1 sequence (P40337 whole entry, looked up): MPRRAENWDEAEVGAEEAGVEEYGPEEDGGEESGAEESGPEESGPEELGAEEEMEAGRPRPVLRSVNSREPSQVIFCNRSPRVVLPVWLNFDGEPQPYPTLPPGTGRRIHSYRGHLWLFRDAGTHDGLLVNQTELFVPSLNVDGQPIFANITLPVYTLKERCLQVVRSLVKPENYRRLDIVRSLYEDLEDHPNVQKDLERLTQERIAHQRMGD
T1 sequence (P51531 whole entry, looked up): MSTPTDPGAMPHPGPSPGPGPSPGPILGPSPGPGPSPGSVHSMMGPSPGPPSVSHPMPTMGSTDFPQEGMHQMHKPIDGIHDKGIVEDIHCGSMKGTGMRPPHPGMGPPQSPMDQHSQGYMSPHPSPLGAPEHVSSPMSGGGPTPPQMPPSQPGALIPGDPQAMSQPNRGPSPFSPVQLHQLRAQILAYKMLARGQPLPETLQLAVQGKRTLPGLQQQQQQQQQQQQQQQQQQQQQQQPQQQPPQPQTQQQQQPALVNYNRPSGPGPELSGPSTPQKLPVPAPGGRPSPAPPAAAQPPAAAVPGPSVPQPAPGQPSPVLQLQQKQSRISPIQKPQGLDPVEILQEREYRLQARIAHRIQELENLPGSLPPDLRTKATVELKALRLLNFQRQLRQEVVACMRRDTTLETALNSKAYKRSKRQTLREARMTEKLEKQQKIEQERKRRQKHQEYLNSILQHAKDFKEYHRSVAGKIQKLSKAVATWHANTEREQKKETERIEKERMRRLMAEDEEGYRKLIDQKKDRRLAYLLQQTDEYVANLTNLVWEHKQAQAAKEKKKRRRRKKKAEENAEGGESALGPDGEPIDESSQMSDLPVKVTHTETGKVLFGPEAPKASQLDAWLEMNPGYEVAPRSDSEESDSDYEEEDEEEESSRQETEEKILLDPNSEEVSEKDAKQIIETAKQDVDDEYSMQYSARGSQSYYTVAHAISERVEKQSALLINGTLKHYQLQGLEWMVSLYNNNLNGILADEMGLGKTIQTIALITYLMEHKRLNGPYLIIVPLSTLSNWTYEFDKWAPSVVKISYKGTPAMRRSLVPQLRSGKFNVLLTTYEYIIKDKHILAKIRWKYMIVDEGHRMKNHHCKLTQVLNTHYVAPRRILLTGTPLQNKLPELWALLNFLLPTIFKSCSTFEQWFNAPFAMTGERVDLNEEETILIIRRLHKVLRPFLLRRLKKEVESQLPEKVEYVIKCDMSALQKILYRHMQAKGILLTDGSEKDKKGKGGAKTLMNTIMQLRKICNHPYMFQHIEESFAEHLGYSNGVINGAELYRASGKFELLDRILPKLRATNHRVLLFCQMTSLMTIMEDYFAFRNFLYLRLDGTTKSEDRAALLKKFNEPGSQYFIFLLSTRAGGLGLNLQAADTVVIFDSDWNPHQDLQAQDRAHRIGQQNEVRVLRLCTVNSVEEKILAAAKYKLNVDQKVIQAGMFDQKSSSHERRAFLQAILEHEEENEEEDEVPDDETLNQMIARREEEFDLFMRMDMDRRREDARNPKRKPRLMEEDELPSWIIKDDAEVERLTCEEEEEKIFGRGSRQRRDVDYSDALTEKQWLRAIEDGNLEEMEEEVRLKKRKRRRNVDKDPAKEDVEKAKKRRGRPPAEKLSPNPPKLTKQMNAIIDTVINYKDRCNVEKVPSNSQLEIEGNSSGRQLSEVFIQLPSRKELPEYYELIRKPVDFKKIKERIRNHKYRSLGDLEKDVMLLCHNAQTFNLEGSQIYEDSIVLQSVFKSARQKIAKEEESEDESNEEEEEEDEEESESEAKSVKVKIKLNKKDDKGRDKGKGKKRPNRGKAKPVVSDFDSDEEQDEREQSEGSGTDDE
T2 sequence (P40337 whole entry, looked up): as the sequence (P40337 whole entry, looked up) above
T2 sequence (P51532 whole entry, looked up): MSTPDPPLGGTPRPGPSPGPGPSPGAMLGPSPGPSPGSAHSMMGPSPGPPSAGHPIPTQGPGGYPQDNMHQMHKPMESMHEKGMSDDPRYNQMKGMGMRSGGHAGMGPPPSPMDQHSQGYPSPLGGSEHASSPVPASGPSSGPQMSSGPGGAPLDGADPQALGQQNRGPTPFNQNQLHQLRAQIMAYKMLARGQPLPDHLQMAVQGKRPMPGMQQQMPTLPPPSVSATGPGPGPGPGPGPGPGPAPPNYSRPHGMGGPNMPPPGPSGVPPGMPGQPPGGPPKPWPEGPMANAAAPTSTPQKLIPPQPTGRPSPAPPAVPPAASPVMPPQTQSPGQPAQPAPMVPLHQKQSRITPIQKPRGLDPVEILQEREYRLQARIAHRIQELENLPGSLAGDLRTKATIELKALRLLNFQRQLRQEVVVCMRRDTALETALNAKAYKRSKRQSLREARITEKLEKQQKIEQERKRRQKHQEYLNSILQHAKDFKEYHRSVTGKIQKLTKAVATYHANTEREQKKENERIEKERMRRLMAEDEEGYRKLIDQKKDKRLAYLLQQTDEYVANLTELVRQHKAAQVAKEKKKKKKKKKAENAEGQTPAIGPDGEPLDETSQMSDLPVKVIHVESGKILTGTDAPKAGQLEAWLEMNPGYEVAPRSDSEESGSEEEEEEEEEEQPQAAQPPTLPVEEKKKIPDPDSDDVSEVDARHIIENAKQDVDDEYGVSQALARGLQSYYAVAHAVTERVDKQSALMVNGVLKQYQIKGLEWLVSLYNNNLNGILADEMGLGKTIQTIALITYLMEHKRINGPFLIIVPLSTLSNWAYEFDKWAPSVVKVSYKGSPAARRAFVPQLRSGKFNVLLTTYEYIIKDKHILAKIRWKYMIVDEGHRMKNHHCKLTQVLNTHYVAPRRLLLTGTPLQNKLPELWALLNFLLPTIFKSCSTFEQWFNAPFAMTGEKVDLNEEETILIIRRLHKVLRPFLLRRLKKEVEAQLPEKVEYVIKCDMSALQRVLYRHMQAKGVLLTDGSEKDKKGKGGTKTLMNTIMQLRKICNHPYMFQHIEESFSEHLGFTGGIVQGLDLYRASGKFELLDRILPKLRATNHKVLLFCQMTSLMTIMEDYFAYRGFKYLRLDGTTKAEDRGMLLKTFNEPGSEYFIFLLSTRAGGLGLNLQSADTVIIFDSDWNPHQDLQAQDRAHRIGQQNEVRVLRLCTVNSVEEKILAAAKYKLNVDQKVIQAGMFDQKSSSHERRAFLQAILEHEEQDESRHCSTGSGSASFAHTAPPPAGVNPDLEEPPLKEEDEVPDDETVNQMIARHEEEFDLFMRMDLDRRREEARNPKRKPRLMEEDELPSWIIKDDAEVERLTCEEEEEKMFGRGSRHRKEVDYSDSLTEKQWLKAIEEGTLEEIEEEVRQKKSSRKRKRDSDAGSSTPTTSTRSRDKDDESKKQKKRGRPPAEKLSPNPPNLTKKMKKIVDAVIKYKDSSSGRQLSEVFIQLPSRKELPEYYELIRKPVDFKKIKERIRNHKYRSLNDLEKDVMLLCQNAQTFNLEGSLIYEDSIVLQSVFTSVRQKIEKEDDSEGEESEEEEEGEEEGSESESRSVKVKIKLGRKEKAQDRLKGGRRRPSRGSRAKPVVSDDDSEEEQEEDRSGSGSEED

## Cc1ncsc1-c1ccc(CNC(=O)[C@@H]2C[C@@H](O)CN2C(=O)[C@@H](NC(=O)CN2CCN(c3cc(-c4ccccc4OS(=O)(=O)c4ccc([N+](=O)[O-])c(F)c4)nnc3N)CC2)C(C)(C)C)cc1
[1]
  Stability: Unstable
[2]
  degraded at 12 h, 50 µM: > 60%

## Cc1ncsc1-c1ccc(CNC(=O)[C@@H]2C[C@@H](O)CN2C(=O)[C@@H](NC(=O)CN2CCN(c3cc(-c4ccccc4OS(=O)(=O)c4ccc([N+](=O)[O-])cc4)nnc3N)CC2)C(C)(C)C)cc1
A549 [3]
  Activity: Active
[4]
  Activity: inactive
A549 [5]
  Activity: Active
HuLEC-5a [6]
  inhibition: inactive
[7]
  Activity: inactive
[8]
  Stability: Stable
[9]
  Activity: Non-Toxic
[10]
  Activity: Non-Toxic
A549 [11]
  inhibition: Active
[12]
  Activity: inactive
A549 [13]
  Activity: Active
[14]
  Activity: Tde
[15]
  Activity: Tde
[16]
  Activity: inactive
HuLEC-5a [17]
  inhibition: inactive
A549 [18]
  Activity: Active
[19]
  Activity: Non-Toxic
A549 [20]
  Activity: Active
[21]
  Activity: inactive
[22]
  Activity: Non-Toxic
[23]
  Stability: Stable
[24]
  Activity: inactive
A549 [25]
  Activity: Active
[26]
  Activity: Non-Toxic
A549 [27]
  Activity: Active
A549 [28]
  IC50: 9.1 µM
[29]
  Activity: inactive
A549 [30]
  inhibition: Active
A549 [31]
  inhibition: Active
A549 [32]
  Activity: Active
[33]
  Activity: Non-Toxic
[34]
  Activity: inactive
NCI-H1299
  IC50: 21.8 µM
[35]
  Activity: inactive
[36]
  Activity: inactive
[37]
  Activity: Active
A549 [38]
  Activity: Active
[39]
  Activity: inactive
